PubChem BioAssay (NCI)
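Protocol summary: plate cells (96-well), add compound at 5 concentrations, incubate 48 h, interpolate endpoints linearly. TGI denotes the concentration required for complete inhibition of growth.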

Experiments:
Test in all cases: growth of human tumour cells (NCI), 48 h
[1] = tested on: SF-295 CNS
[2] = tested on: PC-3 prostate
[3] = tested on: HCT-15 colon
[4] = tested on: U251 CNS
[5] = tested on: HT29 colon
[6] = tested on: SK-MEL-5 melanoma
[7] = tested on: TK-10 renal
[8] = tested on: K-562 leukemia
[9] = tested on: OVCAR-5 ovarian
[10] = tested on: HS 578T breast

Compound | TGI [1] [µM] | TGI [2] [µM] | TGI [3] [µM] | TGI [4] [µM] | TGI [5] [µM] | TGI [6] [µM] | TGI [7] [µM] | TGI [8] [µM] | TGI [9] [µM] | TGI [10] [µM]
Cc1cn([C@@H]2O[C@H](CO[Si](C)(C)C(C)(C)C)[C@]3(O[C@H]3C(=O)NN)[C@H]2O[Si](C)(C)C(C)(C)C)c(=O)[nH]c1=O | 22.2 | 11.4 | 14.8 | 14.5 | 7.79 | 24 | 26.9 | 7.17 | 21.3 | 6.93
COc1cc2c(cc1OC)C1(COc3cc(O)c(O)c(O)c3C1=O)C2 (stereo not given) | > 50 | > 50 | > 50 | > 50 | > 50 | > 50 | > 50 | > 50 | > 50 | > 50
COc1c(O)cc2c(c1O)C(=O)/C(=C/c1ccc(O)cc1)CO2 | > 100 | > 100 | 38.2 | > 100 | 41.1 | 59.6 | 85 | 95.2 | 68.6 | > 100
O=C1OC(=O)c2cc(S(=O)(=O)c3ccc4c(c3)C(=O)OC4=O)ccc21 | > 100 | > 100 | > 100 | > 100 | > 100 | > 100 | > 100 | > 100 | > 100 | > 100
COc1cc2c(=O)cnoc2cc1O | > 100 | > 100 | > 100 | > 100 | > 100 | > 100 | > 100 | > 100 | > 100 | > 100
